Results published in patent publication US20140093457A1, “Compositions, methods and kits for remineralization and inhibition of dental caries in teeth” (President and Fellows of Harvard College, priority 2010, published 2014).
“Also recorded” adds a separate entry of the source.

Assay: RFU comparison of solutions to release OsteoSense 750 from HA
[1] = 1% solution with calcium chloride (1%), room temperature
[2] = 1% solution, 15 minutes at 37° C.
[3] = 1% solution, pH 6.5, room temperature
[4] = 5% solution with calcium chloride (1%), room temperature
[5] = 5% solution, 15 minutes at 37° C.
[6] = 5% solution, pH 6.5, room temperature
[7] = 10% solution with calcium chloride (1%), room temperature
[8] = 10% solution, 15 minutes at 37° C.
[9] = 10% solution, pH 6.5, room temperature
[10] = 20% solution, 15 minutes at 37° C.
[11] = 20% solution with calcium chloride (1%), room temperature
[12] = 20% solution, pH 6.5, room temperature

Experimental: Variables included conditions of pH, temperature, and presence of 1% calcium chloride.
Three conditions were tested: incubation for 15 minutes at 37° C. after vortexing; adjusting pH to 6.5 at 23° C. after vortexing; and addition of 1% calcium chloride to each solution and incubation at room temperature after vortexing.

Q: For `O=P(O)(O)CP(=O)(O)O` [methylene phosphoric acid (MDP), methylene phosphoric acid], which “% released of total OsteoSense” value [1] is on record?
A: 1.45%

Q: What about the “% released of total reference value” [1] of the same molecule?
A: 1.54%

Q: What about the “Raw RFU value” [1] of the same molecule?
A: 0.54 RFU

Q: And the “% released of total OsteoSense” value [2]?
A: 2.49%

Q: What about the “% released of total reference value” [2] of the same molecule?
A: 2.11%

Q: And the “Raw RFU value” [2]?
A: 0.93 RFU

Q: And the “% released of total OsteoSense” value [3]?
A: 3.59%

Q: And the “% released of total reference value” [3]?
A: 2.50%

Q: And the “Raw RFU value” [3]?
A: 1.35 RFU

Q: And the “% released of total OsteoSense” value [4]?
A: 23.89%

Q: What about the “% released of total reference value” [4] of the same molecule?
A: 32.07%

Q: And the “Raw RFU value” [4]?
A: 8.96 RFU

Q: And the “% released of total OsteoSense” value [5]?
A: 34.33%

Q: And the “% released of total reference value” [5]?
A: 30.09%

Q: What about the “Raw RFU value” [5] of the same molecule?
A: 12.88 RFU

Q: And the “% released of total OsteoSense” value [6]?
A: 35.61%

Q: What about the “% released of total reference value” [6] of the same molecule?
A: 27.41%

Q: And the “Raw RFU value” [6]?
A: 13.35 RFU

Q: What about the “% released of total OsteoSense” value [7] of the same molecule?
A: 34.23%

Q: And the “% released of total reference value” [7]?
A: 37.57%

Q: And the “Raw RFU value” [7]?
A: 12.83 RFU

Q: And the “% released of total OsteoSense” value [8]?
A: 56.56%

Q: What about the “% released of total reference value” [8] of the same molecule?
A: 55.84%

Q: And the “Raw RFU value” [8]?
A: 21.21 RFU

Q: What about the “% released of total OsteoSense” value [9] of the same molecule?
A: 59.77%

Q: And the “% released of total reference value” [9]?
A: 41.32%

Q: And the “Raw RFU value” [9]?
A: 22.41 RFU

Q: What about the “% released of total OsteoSense” value [10] of the same molecule?
A: −0.13%

Q: And the “Raw RFU value” [10]?
A: −0.05 RFU

Q: And the “relative efficacy in removing OsteoSense 750 from HA” value (compared with the other agents)?
A: remove more OsteoSense 750 from HA than sodium phosphate monobasic or sodium phosphate dibasic at each concentration; also recorded: generally most effective for removing OsteoSense 750

Q: With `O=P([O-])(O)O.[Na+]` [sodium phosphate monobasic (M), sodium phosphate monobasic] as the molecule, how does the “% released of total OsteoSense” value [1] read?
A: 0.60%

Q: What about the “% released of total reference value” [1] of the same molecule?
A: 2.51%

Q: What about the “Raw RFU value” [1] of the same molecule?
A: 0.22 RFU

Q: What about the “% released of total OsteoSense” value [2] of the same molecule?
A: 3.10%

Q: And the “% released of total reference value” [2]?
A: 3.65%

Q: What about the “Raw RFU value” [2] of the same molecule?
A: 1.16 RFU

Q: What about the “% released of total OsteoSense” value [3] of the same molecule?
A: 6.36%

Q: What about the “% released of total reference value” [3] of the same molecule?
A: 9.73%

Q: What about the “Raw RFU value” [3] of the same molecule?
A: 2.38 RFU

Q: What about the “% released of total OsteoSense” value [4] of the same molecule?
A: 5.34%

Q: And the “% released of total reference value” [4]?
A: 11.39%

Q: What about the “Raw RFU value” [4] of the same molecule?
A: 2.00 RFU

Q: And the “% released of total OsteoSense” value [5]?
A: 10.41%

Q: And the “% released of total reference value” [5]?
A: 13.11%

Q: What about the “Raw RFU value” [5] of the same molecule?
A: 3.90 RFU

Q: And the “% released of total OsteoSense” value [6]?
A: 23.87%

Q: And the “% released of total reference value” [6]?
A: 31.74%

Q: And the “Raw RFU value” [6]?
A: 8.95 RFU

Q: What about the “% released of total OsteoSense” value [7] of the same molecule?
A: 10.27%

Q: What about the “% released of total reference value” [7] of the same molecule?
A: 20.25%

Q: What about the “Raw RFU value” [7] of the same molecule?
A: 3.85 RFU

Q: What about the “% released of total OsteoSense” value [8] of the same molecule?
A: 23.92%

Q: What about the “% released of total reference value” [8] of the same molecule?
A: 32.36%

Q: And the “Raw RFU value” [8]?
A: 8.97 RFU

Q: And the “% released of total OsteoSense” value [9]?
A: 32.44%

Q: And the “% released of total reference value” [9]?
A: 45.17%

Q: What about the “Raw RFU value” [9] of the same molecule?
A: 12.16 RFU

Q: And the “% released of total OsteoSense” value [11]?
A: 20.04%

Q: And the “% released of total reference value” [11]?
A: 39.19%

Q: And the “Raw RFU value” [11]?
A: 7.51 RFU

Q: And the “% released of total OsteoSense” value [10]?
A: 27.67%

Q: What about the “% released of total reference value” [10] of the same molecule?
A: 50.11%

Q: And the “Raw RFU value” [10]?
A: 10.37 RFU

Q: What about the “% released of total OsteoSense” value [12] of the same molecule?
A: 33.90%

Q: And the “% released of total reference value” [12]?
A: 51.43%

Q: What about the “Raw RFU value” [12] of the same molecule?
A: 12.71 RFU
